Assay results reported in US9315546B2, “Growth hormone secretatogue receptor antagonists and uses thereof” (The Administrators of the Tulane Educational Fund, priority 2010, dated 2016).
One block for each molecule: values may come before it. Where no end group is shown, it is not given here. [ ]: non-standard residue; d: D form.

Target: Ghrelin/GHRP/GHS Receptor (Rattus norvegicus, UniProt O08725)
Test: GH release from cell culture of pituitary cells
Format: cell-based
Set-up: After dispersion, the cells were collected by centrifugation, wash with DMEM and placed into culture well; endogenous in cells; host or cells: dispersed primary rat pituitary cells, 4 days in culture
Details: for Unstimulated Basal GH release: Table 8
Protocol: In vitro GH Release-Female rats of the CD-1 strain were housed in a constant temperature room at 24° C. with 14 h light and 10 h darkness. The rats were fed Purina Rat chow and water at libitum. All studies were started between 0800-1000 hours. Pituitaries of mature female Sprague Dawley rats were rapidly removed after decapitation, neurointermediate lobe discarded and then placed in a pH 7.4 buffer. The pituitaries were cut into ˜3-mm pieces and then transferred to a flask containing HEPS buffer with trypsin and incubated at 37° C. Cells were triturated several times during this period. After dispersion, the cells were collected by centrifugation, wash with DMEM and placed into culture well. Cell cultures were maintained for 4 days at 37° with 8% CO2 added to the incubator atmosphere. After 4 days in culture, cells were washed with lactated Ringer's solution adjusted to pH 7.2-7.4 and then vehicle, peptide alone or peptide plus stimulator was added to media. Incubation time was 60-120 minutes after which media was removed from each well for GH determination. The GH RIA reagents were distributed by the NIH. Control data was collected from cell cultures treated with only the corresponding vehicle in the absence of peptide or stimulator. Control stimulated data was collected from cell cultures treated with stimulator alone in the absence of any peptide.

[1] = Table 11, compound 10 μg/ml + stimulator 1 ng/ml
[2] = Table 11, compound 30 μg/ml + stimulator 1 ng/ml
[3] = Table 11, compound alone 10 μg/ml
[4] = Table 11, compound alone 30 μg/ml
[5] = Table 10, compound 10 μg/ml + stimulator 1 ng/ml
[6] = Table 10, compound 30 μg/ml + stimulator 1 ng/ml
[7] = Table 10, compound alone 10 μg/ml
[8] = Table 10, compound alone 30 μg/ml

Ghrelin/GHRP/GHS Receptor, sequence (O08725 whole entry): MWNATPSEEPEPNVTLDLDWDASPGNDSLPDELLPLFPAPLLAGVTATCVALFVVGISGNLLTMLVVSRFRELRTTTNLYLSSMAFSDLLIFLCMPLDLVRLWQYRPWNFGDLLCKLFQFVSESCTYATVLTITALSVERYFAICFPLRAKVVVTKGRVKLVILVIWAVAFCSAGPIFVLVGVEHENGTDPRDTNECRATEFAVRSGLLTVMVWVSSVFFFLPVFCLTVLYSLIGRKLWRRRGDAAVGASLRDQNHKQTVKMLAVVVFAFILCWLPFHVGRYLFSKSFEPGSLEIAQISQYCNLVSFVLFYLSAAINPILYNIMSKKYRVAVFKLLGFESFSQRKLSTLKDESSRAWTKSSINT

Unstimulated Basal GH release (peptide 3 μg/ml): 1264 ± 2 ng/mL | Unstimulated Basal GH release (peptide 10 μg/ml): 980 ± 72 ng/mL | Unstimulated Basal GH release (peptide 30 μg/ml): 699 ± 7 ng/mL
Molecule: Ac-DβNal-DTrp-NH2 [2-Ac-DβNal-DTrp-NH2]

Stimulated GH release (P + S) [1]: 670 ± 32 ng/mL | Stimulated GH release (P + S) [2]: 458 ± 15 ng/mL | Unstimulated GH release [3]: 698 ± 18 ng/mL | Unstimulated GH release [4]: 552 ± 20 ng/mL
Molecule: CCOC(=O)c1cc2ccccc2cc1C(=O)Nc1cccc(OC)c1 [2-[ethylester-3-m-methoxylphenylamide] naphthalene carboxylamide]

Stimulated GH release (P + S) (Table 10, compound 1 μg/ml + stimulator 1 ng/ml): 1085 ± 1 ng/mL | Stimulated GH release (P + S) (Table 10, compound 3 μg/ml + stimulator 1 ng/ml): 917 ± 4 ng/mL | Stimulated GH release (P + S) [5]: 344 ± 6 ng/mL | Stimulated GH release (P + S) [6]: 486 ± 29 ng/mL | Unstimulated GH release (Table 10, compound alone 1 μg/ml): 815 ± 26 ng/mL | Unstimulated GH release (Table 10, compound alone 3 μg/ml): 390 ± 35 ng/mL | Unstimulated GH release [7]: 520 ± 61 ng/mL | Unstimulated GH release [8]: 577 ± 24 ng/mL
Molecule: N[C@H](Cc1c[nH]c2ccccc12)C(=O)N1CCC(c2ccccc2)CC1 [1-DTrp-4-phenylpiperdinamide, DTrp-4-phenylpiperdinamide]

Unstimulated Basal GH release (peptide 3 μg/ml): 105 ± 8 ng/mL | Unstimulated Basal GH release (peptide 10 μg/ml): 950 ± 91 ng/mL | Unstimulated Basal GH release (peptide 30 μg/ml): 782 ± 56 ng/mL | Unstimulated Basal GH release (peptide 100 μg/ml): 756 ± 1 ng/mL
Molecule: Ac-[dK]Y[dW][dW]F-NH2 [9-Ac-DLys-Tyr-DTrp-DTrp-Phe-NH2]

Unstimulated Basal GH release (peptide 10 μg/ml): 267 ± 27 ng/mL | Unstimulated Basal GH release (peptide 30 μg/ml): 276 ± 65 ng/mL | Unstimulated Basal GH release (peptide 100 μg/ml): 360 ± 84 ng/mL
Molecule: [dF]AF[dF]K-NH2 [7-DPhe-Ala-Phe-DPhe-Lys-NH2]

Stimulated GH release (P + S) [5]: 571 ± 32 ng/mL | Stimulated GH release (P + S) [6]: 399 ± 24 ng/mL | Unstimulated GH release [7]: 388 ± 41 ng/mL | Unstimulated GH release [8]: 273 ± 39 ng/mL
Molecule: Ser(Bzl)Lys(Ac)DTrp-p-phenylpiperidinamide

Unstimulated Basal GH release (peptide 1 μg/ml): 1451 ± 19 ng/mL | Unstimulated Basal GH release (peptide 3 μg/ml): 1175 ± 77 ng/mL | Unstimulated Basal GH release (peptide 10 μg/ml): 1129 ± 6 ng/mL | Unstimulated Basal GH release (peptide 30 μg/ml): 744 ± 44 ng/mL
Molecule: [dK]Y[dW][dW]F-NH2 [8-DLys-Tyr-DTrp-DTrp-Phe-NH2]

Unstimulated Basal GH release (peptide 3 μg/ml): 1105 ± 18 ng/mL | Unstimulated Basal GH release (peptide 10 μg/ml): 891 ± 4 ng/mL | Unstimulated Basal GH release (peptide 30 μg/ml): 567 ± 24 ng/mL
Molecule: DPal-Trp-DPhe-Phe-Met-NH2 [14-DPal-Trp-DPhe-Phe-Met-NH2]

Unstimulated Basal GH release (peptide 3 μg/ml): 1124 ± 37 ng/mL | Unstimulated Basal GH release (peptide 10 μg/ml): 749 ± 10 ng/mL | Unstimulated Basal GH release (peptide 30 μg/ml): 615 ± 41 ng/mL
Molecule: H[dW][dW]K-NH2 [1-His-DTrp-DTrp-Lys-NH2]

Stimulated GH release (P + S) [1]: 644 ± 33 ng/mL | Stimulated GH release (P + S) [2]: 529 ± 20 ng/mL | Unstimulated GH release [3]: 794 ± 34 ng/mL | Unstimulated GH release [4]: 504 ± 20 ng/mL
Molecule: 1,3-diaminobutyricamide-DβNal-4-phenylpiperidinamide

Unstimulated Basal GH release (peptide 1 μg/ml): 980 ± 44 ng/mL | Unstimulated Basal GH release (peptide 3 μg/ml): 826 ± 32 ng/mL | Unstimulated Basal GH release (peptide 10 μg/ml): 602 ± 53 ng/mL | Unstimulated Basal GH release (peptide 30 μg/ml): 492 ± 11 ng/mL
Molecule: αAib-DTrp-DcyclohexylAla-NH2 [3-αAib-DTrp-DcyclohexylAla-NH2]

Stimulated GH release (P + S) [5]: 719 ± 26 ng/mL | Stimulated GH release (P + S) [6]: 435 ± 0 ng/mL | Unstimulated GH release [7]: 585 ± 10 ng/mL | Unstimulated GH release [8]: 368 ± 2 ng/mL
Molecule: N[C@H](COCc1ccccc1)C(=O)N1CCN(c2ccccc2)CC1 [6-D Ser(BZL)-N′-phenyl-N-piperazinamide, D Ser(BZL)-N′-phenyl-N-piperazinamide]

Stimulated GH release (P + S) [5]: 878 ± 30 ng/mL | Stimulated GH release (P + S) [6]: 510 ± 15 ng/mL | Unstimulated GH release [7]: 777 ± 34 ng/mL | Unstimulated GH release [8]: 499 ± 18 ng/mL
Molecule: CC(C)(N)C(=O)N[C@H](COCc1ccccc1)C(=O)N1CCN(c2ccccc2)CC1 [αAibDSer(BZL)-N′-phenyl-N-piperazinamide]

Stimulated GH release (P + S) [1]: 441 ± 21 ng/mL | Stimulated GH release (P + S) [2]: 384 ± 16 ng/mL | Unstimulated GH release [3]: 365 ± 2 ng/mL | Unstimulated GH release [4]: 375 ± 30 ng/mL
Molecule: COc1ccccc1C1CCN(C(=O)[C@@H](Cc2c[nH]c3ccccc23)NC(=O)C(C)(C)N)CC1 [αAibDTrp-p-(α-methoxylphenyl) piperidinamide]
